These results are taken from BindingDB's records for doi:10.1021/jm00396a006 (Upjohn, 1988).

The target of this assay is Renin (Sus scrofa). The assay is described as follows: In vitro inhibitory activity towards porcine kidney renin.

One may read the IC50 as the concentration needed to halve the response being measured. Read a high IC50 as lower potency.

Numbered stars: 1 amine (or outer) side, 2 acyl side, 3 side chain; on linkers, the order of the positions; unused ones are H or OH. Square brackets hold non-standard residues; d marks the D form. Peptide text beside a SMILES is read from it. * marks the point of attachment. ξ: configuration not given here. Sta(3ξ) = CC(C)C[C@H](N[*:1])C(O)CC(=O)[*:2]; X1 = CC(C)CC(N[*:1])C(O)CC(=O)[*:2]; For = O=C*

The compound `CC(=O)N[C@@H](Cc1cn(C=O)c2ccccc12)C(=O)N1CCC[C@H]1C(=O)N[C@@H](Cc1ccccc1)C(=O)N[C@@H](Cc1cnc[nH]1)C(=O)NC(CC(C)C)C(O)CC(=O)N[C@H](C(=O)N[C@@H](Cc1cn(C=O)c2ccccc12)C(N)=O)C(C)C` (stereo partly drawn) [Ac-Ftr-Pro-Phe-His-Sta-Val-Ftr-NH2] (Ac-W(For)PFH[X1]VW(For)-NH2) gave an IC50 of 0.0049 µM. This counts as single-digit nanomolar. `CC[C@H](C)[C@H](NC(=O)CC(O)[C@H](CC(C)C)NC(=O)[C@H](Cc1cnc[nH]1)NC(=O)[C@H](Cc1ccccc1)NC(=O)[C@@H]1CCCN1C(=O)[C@H](Cc1cn(C=O)c2ccccc12)NC(C)=O)C(N)=O` (stereo partly drawn) [Ac-Ftr-Pro-Phe-His-Sta-Ile-NH2] registered an IC50 of 0.12 µM. Against the preceding compound, the IC50 is about 24-fold higher. In the case of `CC[C@H](C)[C@H](NC(=O)CC(O)[C@H](CC(C)C)NC(=O)[C@H](Cc1cnc[nH]1)NC(=O)[C@H](Cc1ccccc1)NC(=O)[C@@H]1CCCN1C(=O)[C@H](Cc1cnc[nH]1)NC(C)=O)C(N)=O` (stereo partly drawn) [Ac-His-Pro-Phe-His-Sta-Ile-NH2] (Ac-HPFH[Sta(3ξ)]I-NH2) it was 1.5 µM.
